According to patent publication US10918713B2, “Epitopes from allergen proteins and methods and uses for immune response modulation” (LA JOLLA INSTITUTE FOR ALLERGY AND IMMUNOLOGY, priority 2012, dated 2021):
“And” between values parts separate entries of the source, which are not always exact repeats. Identical values can stand only once.

What was measured:
DPB1*0401 = DPB1*0401 (Homo sapiens, UniProt P04440+P20036); test: biochemical
DRB4*0101 = DRB4*0101 (Homo sapiens, UniProt P01903+P13762, G164S); test: biochemical
[1] = tested on: PBMC from allergic donors; test: Dual ELISPOT, total IL-5 and IFN-γ response (SFC); assay type: cell-based, human; conditions: sum of IFNg and IL-5
Method: (§1) Spots were counted by computer-assisted image analysis (Zeiss, KS-ELISPOT reader, Munich, Germany).
(§2) Each assay was performed in triplicate. The level of statistical significance was determined with a Student's t-test using the mean of triplicate values of the response against relevant pools or individual peptides versus the response against the DMSO control.

[2] = tested on: PBMC from allergic donors; test: IL-5 ELISPOT with extract-stimulated short-term lines; assay type: cell-based, human; conditions: positive donor/peptide response
Method: as §1, §2

[3] = tested on: PBMC from allergic donors; test: IFN-γ ELISPOT with extract-stimulated short-term lines; assay type: cell-based, human; conditions: positive donor/peptide response
Method: as §1, §2

Compound | Response (SFC/10^6) Total ([1]; one donor per table line) | Response (SFC/10^6) IL-5 ([2]; one donor per table line) | Response (SFC/10^6) IFNg ([3]; one donor per table line) | Response (SFC/10^6) Total ([1]; each table line is one donor) | Response (SFC/10^6) IL-5 ([2]; each table line is one donor) | Response (SFC/10^6) IFNg ([3]; each table line is one donor) | other results
CC[C@H](C)[C@H](NC(=O)[C@H](Cc1ccc(O)cc1)NC(=O)[C@H](C)NC(=O)[C@H](CC(=O)O)NC(=O)[C@H](C)NC(=O)[C@@H](NC(=O)CNC(=O)[C@@H](N)CCC(N)=O)C(C)C)C(=O)N[C@H](C(=O)N[C@@H](CC(C)C)C(=O)N[C@H](C(=O)N[C@H](C(=O)N[C@@H](CC(C)C)C(=O)N1CCC[C@H]1C(=O)N[C@@H](CCCCN)C(=O)O)[C@@H](C)O)C(C)C)[C@@H](C)O [3324.0011] |  |  |  |  |  |  | IC50 (DPB1*0401): 2010 nM
CC[C@H](C)[C@H](N)C(=O)N[C@H](C(=O)N[C@@H](Cc1ccc(O)cc1)C(=O)N[C@H](C(=O)N[C@@H](C)C(=O)N[C@H](C(=O)N[C@@H](C)C(=O)N[C@H](C(=O)N[C@@H](CC(C)C)C(=O)N1CCC[C@H]1C(=O)N[C@@H](CC(N)=O)C(=O)N[C@@H](Cc1ccc(O)cc1)C(=O)N[C@@H](CS)C(=O)N[C@@H](CCCNC(=N)N)C(=O)N[C@@H](C)C(=O)O)[C@@H](C)O)[C@@H](C)O)C(C)C)[C@@H](C)O [3324.0014] |  |  |  |  |  |  | IC50 (DPB1*0401): 2990 nM
CC[C@H](C)[C@H](N)C(=O)N[C@@H](C)C(=O)N[C@@H](CO)C(=O)N[C@@H](CC(C)C)C(=O)N[C@@H](Cc1ccccc1)C(=O)N[C@@H](C)C(=O)N[C@@H](C)C(=O)N[C@@H](C)C(=O)NCC(=O)N[C@@H](CC(C)C)C(=O)N[C@@H](C)C(=O)N[C@@H](C)C(=O)N[C@@H](C)C(=O)N[C@@H](C)C(=O)N1CCC[C@H]1C(=O)O [3324.0015] |  |  |  |  |  |  | IC50 (DRB4*0101): 301 nM; IC50 (DPB1*0401): 28000 nM
CC(C)C[C@H](NC(=O)CNC(=O)[C@H](C)NC(=O)[C@H](C)NC(=O)[C@H](C)N)C(=O)N[C@@H](C)C(=O)N[C@@H](C)C(=O)N[C@@H](C)C(=O)N[C@@H](C)C(=O)N1CCC[C@H]1C(=O)N[C@@H](CC(C)C)C(=O)N[C@@H](CCC(=O)O)C(=O)N[C@@H](CO)C(=O)N[C@@H](CCCNC(=N)N)C(=O)N[C@@H](CCC(N)=O)C(=O)O [3324.0017] |  |  |  |  |  |  | IC50 (DRB4*0101): 28 nM
CC(C)C[C@H](NC(=O)[C@H](CC(N)=O)NC(=O)[C@H](CC(=O)O)NC(=O)[C@H](CO)NC(=O)[C@H](CC(=O)O)NC(=O)[C@H](CC(C)C)NC(=O)[C@@H](NC(=O)[C@H](Cc1ccccc1)NC(=O)[C@H](C)NC(=O)[C@H](CCCCN)NC(=O)[C@H](Cc1ccccc1)NC(=O)[C@H](CC(C)C)NC(=O)[C@H](CCCNC(=N)N)NC(=O)[C@H](C)NC(=O)[C@@H]1CCCN1)C(C)C)C(=O)O [3324.1585] | 170 SFC/10^6 and 2767 SFC/10^6 and 1790 SFC/10^6 and 583 SFC/10^6 and 700 SFC/10^6 and 70 SFC/10^6 | 170 SFC/10^6 and 890 SFC/10^6 and 1790 SFC/10^6 and 190 SFC/10^6 and 520 SFC/10^6 and 70 SFC/10^6 | 1877 SFC/10^6 and 393 SFC/10^6 and 180 SFC/10^6 |  |  |  | 
CC[C@H](C)[C@H](NC(=O)[C@@H](NC(=O)[C@H](CO)NC(=O)[C@H](C)N)C(C)C)C(=O)N1CCC[C@H]1C(=O)N1CCC[C@H]1C(=O)N[C@@H](C)C(=O)N[C@@H](CCCNC(=N)N)C(=O)N[C@@H](CC(C)C)C(=O)N[C@@H](Cc1ccccc1)C(=O)N[C@@H](CCCCN)C(=O)N[C@@H](C)C(=O)N[C@@H](Cc1ccccc1)C(=O)N[C@H](C(=O)N[C@@H](CC(C)C)C(=O)O)C(C)C [3324.1587] | 273 SFC/10^6 and 330 SFC/10^6 and 97 SFC/10^6 and 100 SFC/10^6 | 203 SFC/10^6 and 97 SFC/10^6 and 100 SFC/10^6 | 273 SFC/10^6 and 127 SFC/10^6 |  |  |  | 
CC[C@H](C)[C@H](NC(=O)[C@H](CC(C)C)NC(=O)[C@H](CC(N)=O)NC(=O)[C@H](CC(=O)O)NC(=O)[C@H](CO)NC(=O)[C@H](CC(=O)O)NC(=O)[C@H](CC(C)C)NC(=O)[C@@H](NC(=O)[C@H](Cc1ccccc1)NC(=O)[C@H](C)NC(=O)[C@@H](N)CCCCN)C(C)C)C(=O)N1CCC[C@H]1C(=O)N[C@@H](CCCCN)C(=O)N[C@H](C(=O)N[C@H](C(=O)O)C(C)C)C(C)C [3324.1588] | 123 SFC/10^6 and 1147 SFC/10^6 and 57 SFC/10^6 | 123 SFC/10^6 and 947 SFC/10^6 and 57 SFC/10^6 | 200 SFC/10^6 |  |  |  | 
CC[C@H](C)[C@H](NC(=O)[C@H](Cc1ccc(O)cc1)NC(=O)[C@H](CCC(=O)O)NC(=O)[C@H](CC(C)C)NC(=O)[C@H](CO)NC(=O)[C@@H](NC(=O)[C@@H](N)Cc1ccccc1)[C@@H](C)O)C(=O)N[C@@H](CCC(=O)O)C(=O)N[C@@H](C)C(=O)N[C@@H](C)C(=O)N[C@@H](CCCCN)C(=O)N[C@@H](Cc1c[nH]c2ccccc12)C(=O)N[C@@H](CC(C)C)C(=O)N[C@@H](CC(C)C)C(=O)N1CCC[C@H]1C(=O)O [3324.1589] |  |  |  | 1743 SFC/10^6 and 203 SFC/10^6 | 1433 SFC/10^6 and 203 SFC/10^6 | 310 SFC/10^6 | 
CC[C@H](C)[C@H](NC(=O)[C@H](Cc1ccccc1)NC(=O)[C@H](CC(=O)O)NC(=O)[C@@H](NC(=O)[C@@H](NC(=O)CNC(=O)[C@@H](N)CCC(=O)O)[C@@H](C)O)C(C)C)C(=O)N[C@@H](Cc1ccccc1)C(=O)NCC(=O)N[C@@H](CCC(=O)O)C(=O)N[C@@H](C)C(=O)N[C@@H](CCCNC(=N)N)C(=O)N[C@@H](CO)C(=O)N[C@@H](CC(C)C)C(=O)N[C@@H](Cc1ccc(O)cc1)C(=O)O [3324.1590] |  |  |  | 1697 SFC/10^6 and 363 SFC/10^6 | 1300 SFC/10^6 and 363 SFC/10^6 | 397 SFC/10^6 | 
CC[C@H](C)[C@H](N)C(=O)N[C@@H](C)C(=O)N[C@@H](Cc1ccccc1)C(=O)N[C@@H](Cc1ccccc1)C(=O)N[C@@H](CCCNC(=N)N)C(=O)N[C@@H](CCCCN)C(=O)N[C@@H](CCC(=O)O)C(=O)N1CCC[C@H]1C(=O)N[C@@H](CC(C)C)C(=O)N[C@@H](CCCCN)C(=O)N[C@@H](CCC(=O)O)C(=O)N[C@@H](CS)C(=O)NCC(=O)NCC(=O)N[C@H](C(=O)O)[C@@H](C)CC [3337.0029] | 257 SFC/10^6 | 180 SFC/10^6 | 77 SFC/10^6 |  |  |  | 
CSCC[C@H](N)C(=O)N[C@@H](CCCNC(=N)N)C(=O)N[C@@H](CC(N)=O)C(=O)N[C@H](C(=O)N[C@@H](Cc1ccccc1)C(=O)N[C@@H](CC(=O)O)C(=O)N[C@@H](CC(=O)O)C(=O)N[C@H](C(=O)N[C@H](C(=O)N1CCC[C@H]1C(=O)N[C@@H](C)C(=O)N[C@@H](CC(=O)O)C(=O)N[C@@H](Cc1ccccc1)C(=O)N[C@@H](CCCCN)C(=O)N[C@H](C(=O)O)C(C)C)C(C)C)C(C)C)C(C)C [3337.0030] |  |  |  | 213 SFC/10^6 and 133 SFC/10^6 and 907 SFC/10^6 | 110 SFC/10^6 and 133 SFC/10^6 and 447 SFC/10^6 | 103 SFC/10^6 and 460 SFC/10^6 | 
CSCC[C@H](NC(=O)[C@@H]1CCCN1C(=O)CNC(=O)[C@@H](NC(=O)[C@H](CC(C)C)NC(=O)[C@@H]1CCCN1C(=O)[C@H](CCCCN)NC(=O)[C@H](C)NC(=O)[C@H](CO)NC(=O)[C@H](CCCCN)NC(=O)[C@@H](NC(=O)[C@H](CCC(=O)O)NC(=O)[C@H](Cc1c[nH]c2ccccc12)NC(=O)[C@@H](N)CC(C)C)C(C)C)[C@@H](C)O)C(=O)N[C@@H](CC(N)=O)C(=O)O [3337.0031] |  |  |  | 90 SFC/10^6 and 1713 SFC/10^6 | 1010 SFC/10^6 | 90 SFC/10^6 and 703 SFC/10^6 | 
